Here are results for five compounds from patent publication US7795458B2, “Salt of (2S, 3S)-3-[[(1S)-1-isobutoxymethyl-3-methylbutyl] carbamoyl] oxirane-2-carboxylic acid” (Nippon Chemiphar Co., Ltd, priority 2003, dated 2010).

Data set [1] is described as follows: Comparative stability test (solid kept at 80° C. for three days, light-shaded and airtight; remaining substance by HPLC). Format: physicochemical. The note with it: for Remaining ratio(%) after 3 days at 80° C.: 10 mg solid sample, thermostat at 80° C., three days, light-shaded and airtight, HPLC; for storage stability (result in words): left at 80° C. for three days. On the procedure: The crystalline Na salt of the invention (described in Example 9) was subjected to a comparative stability test. In the test, the Na salt was left at 80° C. for three days together with both the substance obtained by condensing the solution to dryness and the product collected by filtration and left at room temperature after recrystallization.
The crystalline K salt of the invention (described in Example 11) was subjected to a stability test in which the K salt was left at 80° C. for three days.
mobile phase: a mixture of 0.1 mol/L sodium dihydrogen phosphate reagent (pH: 3.0)/acetonitrile (5:2),
flow rate; controlled so that the retention time of (2S,3S)-3-[[(1S)-1-isobutoxymethyl-3-methylbutyl]-carbamoyl]oxirane-2-carboxylic acid would be approx. 13 minutes, and
As a sample, 10 mg of sodium or potassium (2S,3S)-3-[[(1S)-1-isobutoxymethyl-3-methylbutyl]carbamoyl]oxirane-2-carboxylate was weighed and placed in a test tube. After the sample was kept in a thermostat at 80° C. for three days under a light-shaded and airtight condition, the amount of remaining substance was measured by HPLC.
The same as those in Example 14.

Data set [2] deals with cathepsin. The note with it: background statement; cited from earlier work.

On to `CC(C)COC[C@H](CC(C)C)NC(=O)[C@H]1O[C@@H]1C(=O)[O-].[K+]` [K salt (obtained in Example 11), potassium (2S,3S)-3-[[(1S)-1-isobutoxymethyl-3-methylbutyl]carbamoyl]oxirane-2-carboxylate], for which, in data set [1], the “Remaining ratio(%) after 3 days at 80° C.” value (“Remaining ratio(%)” for short) came out at 99.9% and the “storage stability (result in words)” value is “excellent in storage stability”.
Turning to `CC(C)COC[C@H](CC(C)C)NC(=O)[C@H]1O[C@@H]1C(=O)[O-].[Na+]` [Na salt (obtained according to the conventional process)] [sodium (2S,3S)-3-[[(1S)-1-isobutoxymethyl-3-methylbutyl]carbamoyl]oxirane-2-carboxylate, reference compound], the “Remaining ratio(%)” value in data set [1] is 13-77%.
On to `CC(C)COC[C@H](CC(C)C)NC(=O)[C@H]1O[C@@H]1C(=O)[O-].[Na+]` [Na salt (obtained through recrystallization and drying in ai] [sodium (2S,3S)-3-[[(1S)-1-isobutoxymethyl-3-methylbutyl]carbamoyl]oxirane-2-carboxylate, reference compound], for which the “Remaining ratio(%)” value in data set [1] is given as 38-77%.
For the compound `CC(C)COC[C@H](CC(C)C)NC(=O)[C@H]1O[C@@H]1C(=O)[O-].[Na+]` [Na salt (obtained in Example 9), sodium (2S,3S)-3-[[(1S)-1-isobutoxymethyl-3-methylbutyl]carbamoyl]oxirane-2-carboxylate], in data set [1], the “Remaining ratio(%)” value is on record as 95-98% and the “storage stability (result in words)” value is reported as “superior to the substances for comparison in storage stability”.
In the case of `CC(C)COC[C@H](CC(C)C)NC(=O)[C@H]1O[C@@H]1C(=O)[O-].[Na+]` [Compound A, sodium (2S,3S)-3-[[(1S)-1-isobutoxymethyl-3-methylbutyl]carbamoyl]-oxirane-2-carboxylate], the cathepsin-inhibitory action entry in data set [2] was “shows a cathepsin-inhibitory action”.
